Measured values: US20240391931A1 (Bristol-Myers Squibb Company, priority 2021, published 2024)
pEC50: −log10 of the molar value.

Target: HER2YVMA (Homo sapiens, UniProt P04626, INS775YVMA)
Experiment: HER2 signaling (pHER2) in BEAS2B-HER2YVMA cells
Type: cell-based
Set-up: expressed in transfected cells; host or cells: HEK293 (pool), Ba/F3 (clones), BEAS2B (clones); lentiviral vector pCDH-CMV-MCS-EF1-Neo
Details: read-out: BEAS2B YVMA pHER2 EC50
Experimental: Cell culture, plasmid cloning, and lentiviral transduction were carried out according to standard procedures. The Human HER2 cDNA construct in pCMV6-Entry for the HER2 wildtype (WT) expression was obtained from Origene. The HER2 cDNA including the 12-nucleotide insertion corresponding to YVMA insertion (HER2YVMA) was codon optimized, synthesized and cloned by GenScript (Piscataway, NJ) in pcDNA3.1. The lentiviral constructs expressing HER2YVMA and HER2 WT were sub-cloned using PCR at System Biosciences (SBI, Mountainview, CA) into lentiviral vectors pCDH-CMV-MCS-EF1-Neo and lentiviral particles were generated.
Engineered lines expressing HER2YVMA and HER2 WT were prepared in HEK293 (human embryonic kidney cells), Ba/F3 (Interleukin 3 (IL3)-dependent murine pro B cell line), and BEAS2B (primary immortalized human bronchial epithelial cell line). […]
HER2 signaling was assessed in BT474 and N87 cell lines which endogenously overexpress the HER2 wildtype (WT) protein, in NCI-H1781 cells which endogenously expresses a HER2 mutant protein containing a VC insertion in the kinase domain (HER2VC or G776delinsVC), and in engineered cell lines transduced to express the Her2 mutant protein containing the YVMA insertion (Hek293-HER2YVMA and BEAS2B-HER2YVMA). […]
HER2 signaling was evaluated using phospho (Tyr1248)/total ErbB2 whole cell lysate MSD plates (Meso-Scale Discovery, Gaithersburg, MD). […]

Chain of HER2YVMA (P04626 with tags, fused parts or gaps INS775YVMA): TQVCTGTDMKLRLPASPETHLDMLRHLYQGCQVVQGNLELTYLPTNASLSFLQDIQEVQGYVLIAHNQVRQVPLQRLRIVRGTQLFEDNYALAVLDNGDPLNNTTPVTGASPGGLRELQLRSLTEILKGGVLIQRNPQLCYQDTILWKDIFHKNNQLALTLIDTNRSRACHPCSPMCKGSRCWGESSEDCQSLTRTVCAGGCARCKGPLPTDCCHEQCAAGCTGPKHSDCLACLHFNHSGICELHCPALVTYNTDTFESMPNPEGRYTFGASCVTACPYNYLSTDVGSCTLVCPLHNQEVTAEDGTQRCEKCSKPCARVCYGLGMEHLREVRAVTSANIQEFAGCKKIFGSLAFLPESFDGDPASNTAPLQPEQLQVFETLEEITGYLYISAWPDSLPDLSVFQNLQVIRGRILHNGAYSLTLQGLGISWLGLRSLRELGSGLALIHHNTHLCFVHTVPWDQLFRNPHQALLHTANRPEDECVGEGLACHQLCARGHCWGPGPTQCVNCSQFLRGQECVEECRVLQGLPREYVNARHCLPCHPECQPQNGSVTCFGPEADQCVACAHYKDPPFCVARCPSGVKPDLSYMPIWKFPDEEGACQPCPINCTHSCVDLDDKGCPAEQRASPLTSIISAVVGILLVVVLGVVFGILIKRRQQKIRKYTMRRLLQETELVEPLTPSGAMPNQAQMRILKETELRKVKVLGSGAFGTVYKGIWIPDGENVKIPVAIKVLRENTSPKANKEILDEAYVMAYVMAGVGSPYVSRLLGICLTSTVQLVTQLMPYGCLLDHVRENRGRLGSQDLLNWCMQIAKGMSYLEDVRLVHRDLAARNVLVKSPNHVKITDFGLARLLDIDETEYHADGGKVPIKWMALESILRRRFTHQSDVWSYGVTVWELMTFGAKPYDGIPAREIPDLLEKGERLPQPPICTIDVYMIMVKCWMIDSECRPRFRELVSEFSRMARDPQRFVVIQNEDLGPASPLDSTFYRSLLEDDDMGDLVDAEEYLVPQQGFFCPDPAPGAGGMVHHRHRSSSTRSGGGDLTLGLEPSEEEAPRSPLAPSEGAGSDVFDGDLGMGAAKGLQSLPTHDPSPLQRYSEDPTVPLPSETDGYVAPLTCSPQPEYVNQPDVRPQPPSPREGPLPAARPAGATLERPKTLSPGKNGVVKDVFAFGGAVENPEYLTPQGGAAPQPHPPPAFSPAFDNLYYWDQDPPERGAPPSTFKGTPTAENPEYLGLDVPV

pEC50: > 7.00
Compound: COc1ccc(Oc2ccc(Nc3ncnc4sc5c(c34)CCN(C(=O)/C=C/CN(C)C)C5)cc2C)cn1 [Compound 95, (E)-4-(Dimethylamino)-1-(4-((4-((6-methoxypyridin-3-yl)oxy)-3-methylphenyl)amino)-5,6-dihydropyrido[4′,3′:4,5]thieno[2,3-d]pyrimidin-7(8H)-yl)but-2-en-1-one]
